These compounds were tested on T47D (assay: Inhibition of breast cancer cell line T47D proliferation).
Type: functional, Homo sapiens
Set-up: concentration or dose not given beside the values

SMILES	Inhibition
C[C@H](CO)C1CCC2/C(=C/C=C3CCCCC3)CCC[C@@]21C (stereo partly drawn)	13%
C[C@H](CO)C1CCC2/C(=C/C=C3CCC4(CC3)OCCO4)CCC[C@@]21C (stereo partly drawn)	40%
CC(=O)C1CCC2/C(=C/C=C3CCCCC3)CCC[C@]12C (stereo partly drawn)	24%
C[C@H](C=O)C1CCC2/C(=C/C=C3CCC4(CC3)OCCO4)CCC[C@@]21C (stereo partly drawn)	47%
C=C1CC[C@H](O)C/C1=C/C=C1\CCC[C@]2(C)C(C(C)=O)CCC12 (stereo partly drawn)	59%
C[C@H](C=O)C1CCC2/C(=C/C=C3CCCCC3)CCC[C@@]21C (stereo partly drawn)	36%
CC(=O)C1CCC2/C(=C/C=C3CCC4(CC3)OCCO4)CCC[C@]12C (stereo partly drawn)	47%
CC(=O)C1CCC2/C(=C/C=C3CCC(=O)CC3)CCC[C@]12C (stereo partly drawn)	58%

— ChEMBL document CHEMBL1128076, “Synthesis of novel 20-oxo-pregnacalciferol analogs with binding affinity to the progesterone receptor” (1995)
